Laboratory results taken from the supplement of paper PMC13380429.

Tests used:
Conditions in all cases: 72 h
U2OS [1] = experiment: cell viability relative to DMSO; higher = less toxic
Calu-3 [2] = experiment: as above
Caco-2 [3] = experiment: as above
Vero E6 [4] = experiment: as above
HepG2 [5] = experiment: as above
U2OS [6] = experiment: drug sensitivity score (DSS) for viability; higher = more toxic; extreme values may be limits of the assay
Calu-3 [7] = experiment: as above
Caco-2 [8] = experiment: as above
Vero E6 [9] = experiment: as above
HepG2 [10] = experiment: as above
U2OS [11] = experiment: relative viability EC50 (midpoint between 100% and the lowest measured viability); higher = less toxic
Calu-3 [12] = experiment: as above
Caco-2 [13] = experiment: as above
Vero E6 [14] = experiment: as above
HepG2 [15] = experiment: as above

Row | Structure (SMILES) | cell viability (U2OS [1]; 1 nM) | cell viability (U2OS [1]; 10 nM) | cell viability (U2OS [1]; 100 nM) | cell viability (U2OS [1]; 1000 nM) | cell viability (U2OS [1]; 10000 nM) | cell viability (Calu-3 [2]; 1 nM) | cell viability (Calu-3 [2]; 10 nM) | cell viability (Calu-3 [2]; 100 nM) | cell viability (Calu-3 [2]; 1000 nM) | cell viability (Calu-3 [2]; 10000 nM) | cell viability (Caco-2 [3]; 1 nM) | cell viability (Caco-2 [3]; 10 nM) | cell viability (Caco-2 [3]; 100 nM) | cell viability (Caco-2 [3]; 1000 nM) | cell viability (Caco-2 [3]; 10000 nM) | cell viability (Vero E6 [4]; 1 nM) | cell viability (Vero E6 [4]; 10 nM) | cell viability (Vero E6 [4]; 100 nM) | cell viability (Vero E6 [4]; 1000 nM) | cell viability (Vero E6 [4]; 10000 nM) | cell viability (HepG2 [5]; 1 nM) | cell viability (HepG2 [5]; 10 nM) | cell viability (HepG2 [5]; 100 nM) | cell viability (HepG2 [5]; 1000 nM) | cell viability (HepG2 [5]; 10000 nM) | drug sensitivity score (U2OS [6]) | drug sensitivity score (Calu-3 [7]) | drug sensitivity score (Caco-2 [8]) | drug sensitivity score (Vero E6 [9]) | drug sensitivity score (HepG2 [10]) | relative viability EC50 (U2OS [11]) | relative viability EC50 (Calu-3 [12]) | relative viability EC50 (Caco-2 [13]) | relative viability EC50 (Vero E6 [14]) | relative viability EC50 (HepG2 [15])
1 | CC(C)c1c(NC(=O)Nc2ccc(Cl)cc2)c(=O)n(-c2ccccc2)n1C [TC-FPR-43] | 97.1% | 103% | 99.3% | 107% | 93.2% | 106% | 102% | 100% | 105% | 96.5% | 98.8% | 105% | 102% | 98.6% | 99.2% | 96.7% | 96.8% | 94.2% | 96.9% | 92.4% | 90.9% | 105% | 101% | 94.3% | 94.5% | 0 | 0 | 0 | 0 | 0 | > 10 µM | > 10 µM | > 10 µM | > 10 µM | > 10 µM
2 | CN1CCc2c(c3ccccc3n2Cc2ccccc2)C1 [mebhydrolin] | 96.5% | 102% | 98.5% | 98.2% | 95.3% | 106% | 95.8% | 106% | 104% | 104% | 90.3% | 92.8% | 90.4% | 101% | 100% | 106% | 99.4% | 99.9% | 94.1% | 89.6% | 94.3% | 102% | 106% | 77% | 94.2% | 0 | 0 | 0 | 0 | 3.1 | > 10 µM | > 10 µM | > 10 µM | > 10 µM | > 10 µM
3 | CCCc1nc2c(C)cc(-c3nc4ccccc4n3C)cc2n1Cc1ccc(-c2ccccc2C(=O)O)cc1 [telmisartan] | 97.3% | 105% | 97.5% | 98.9% | 98.6% | 92.9% | 97.9% | 102% | 102% | 108% | 89.5% | 97.3% | 90.7% | 90.6% | 87.5% | 100% | 95.9% | 96% | 92.9% | 96.6% | 94.2% | 95.1% | 103% | 99.8% | 111% | 0 | 0 | 0 | 0 | 0 | > 10 µM | > 10 µM | > 10 µM | > 10 µM | > 10 µM
4 | CN1C(=O)N(c2cc(Cl)cc(Cl)c2)C(=O)[C@]12CN(c1ccc(C(=O)O)cn1)C[C@H]2c1ccc(C#N)cc1 | 98.8% | 96.5% | 100% | 101% | 94.4% | 104% | 90.8% | 93.7% | 111% | 107% | 93.9% | 98.4% | 97.5% | 89% | 97.3% | 99.4% | 102% | 101% | 93.7% | 103% | 104% | 93.1% | 91.5% | 96.9% | 106% | 0 | 0 | 0 | 0 | 0 | > 10 µM | > 10 µM | > 10 µM | > 10 µM | > 10 µM
5 | CCC1(c2ccccc2)C(=O)NCNC1=O [primidone] | 102% | 98.3% | 101% | 102% | 107% | 102% | 94.8% | 105% | 94.1% | 114% | 93.1% | 100% | 84.5% | 101% | 115% | 94.5% | 95.1% | 92% | 92.2% | 95.3% | 112% | 78.9% | 89.4% | 84.9% | 96.3% | 0 | 0 | 0 | 0 | 0.2 | > 10 µM | > 10 µM | > 10 µM | > 10 µM | > 10 µM
6 | CCC(C)n1ncn(-c2ccc(N3CCN(c4ccc(OCC5COC(Cn6cncn6)(c6ccc(Cl)cc6Cl)O5)cc4)CC3)cc2)c1=O (stereo not given) [itraconazole] | 92.1% | 99.5% | 93.9% | 102% | 109% | 91.1% | 102% | 101% | 104% | 98.6% | 103% | 101% | 111% | 99.7% | 97.2% | 92.9% | 87.4% | 87.2% | 87.9% | 108% | 92.7% | 94.9% | 101% | 92.7% | 97.6% | 0 | 0 | 0 | 0 | 0 | > 10 µM | > 10 µM | > 10 µM | > 10 µM | > 10 µM
7 | C=CCNc1c(O)cc2c(O)c1C[C@@H](C)C[C@H](OC)[C@H](O)[C@@H](C)/C=C(\C)[C@H](OC(N)=O)[C@@H](OC)/C=C\C=C(/C)C(=O)N2 [retaspimycin] | 96.5% | 99% | 88% | 5.2% | 2.1% | 94.2% | 89.1% | 84.5% | 46.2% | 41.2% | 92.1% | 101% | 94% | 60% | 27.8% | 99.3% | 100% | 104% | 53.3% | 25.5% | 97.3% | 95.6% | 6.2% | 1.8% | 2.9% | 19.2 | 11.5 | 8.8 | 9.7 | 30 | 0.232 µM | 0.199 µM | 0.819 µM | 0.815 µM | 0.0315 µM
8 | N#Cc1c(N(CC(=O)O)CC(=O)O)sc(C(=O)O)c1CC(=O)O [Strontium Ranelate] | 97.3% | 102% | 100% | 101% | 96.7% | 106% | 87.9% | 98.7% | 104% | 104% | 93% | 102% | 93.6% | 106% | 91.2% | 96.7% | 101% | 100% | 97.6% | 99.8% | 93.7% | 94.9% | 103% | 100% | 108% | 0 | 0 | 0 | 0 | 0 | > 10 µM | > 10 µM | > 10 µM | > 10 µM | > 10 µM
9 | NC(=O)CC[C@H](NC(=O)Cc1ccccc1)C(=O)O [phenylacetylglutamine] | 97% | 101% | 97.8% | 92.2% | 97.5% | 90.6% | 102% | 94.9% | 95.8% | 98.3% | 91.4% | 101% | 82.2% | 96% | 92.9% | 104% | 94.6% | 103% | 100% | 105% | 93.9% | 94.4% | 96.2% | 90.9% | 98.5% | 0 | 0 | 0 | 0 | 0 | > 10 µM | > 10 µM | > 10 µM | > 10 µM | > 10 µM
10 | Cc1cccc(C)c1NC(=O)CC12CCCN1CCC2 [pilsicainide] | 96.3% | 92.8% | 99.4% | 94.7% | 102% | 106% | 94.6% | 87.8% | 102% | 94.7% | 104% | 83.8% | 95% | 94.7% | 91.9% | 102% | 98.7% | 99.9% | 100% | 100% | 86.5% | 102% | 90.2% | 99.4% | 91.1% | 0 | 0 | 0 | 0 | 0 | > 10 µM | > 10 µM | > 10 µM | > 10 µM | > 10 µM
11 | COc1nc(N)nc2c1ncn2[C@@H]1O[C@H](CO)[C@@H](O)[C@@H]1O [nelarabine] | 103% | 97.5% | 98.5% | 95.6% | 102% | 115% | 101% | 94.8% | 92.3% | 107% | 97.3% | 98% | 101% | 98.6% | 104% | 97.4% | 97.3% | 99.5% | 97.6% | 98.5% | 105% | 104% | 105% | 95.9% | 109% | 0 | 0 | 0 | 0 | 0 | > 10 µM | > 10 µM | > 10 µM | > 10 µM | > 10 µM
12 | Cc1cccc(C)c1NC(=O)CN1CCCC1=O [nefiracetam] | 96.5% | 93.3% | 102% | 97.2% | 102% | 104% | 104% | 97.2% | 108% | 98.7% | 98.3% | 91.2% | 105% | 101% | 91.2% | 94.5% | 106% | 92.6% | 102% | 111% | 102% | 104% | 96.9% | 102% | 100% | 0 | 0 | 0 | 0 | 0 | > 10 µM | > 10 µM | > 10 µM | > 10 µM | > 10 µM
13 | O=C(O)c1ccc(O)c2ncccc12 [IOX1] | 99.9% | 100% | 100% | 103% | 99.7% | 97.6% | 99.5% | 98.2% | 105% | 86.7% | 89% | 97.7% | 97.6% | 104% | 102% | 98% | 92.3% | 103% | 101% | 106% | 110% | 90.1% | 87.4% | 101% | 94.7% | 0 | 0 | 0 | 0 | 0 | > 10 µM | > 10 µM | > 10 µM | > 10 µM | > 10 µM
14 | NS(=O)(=O)c1cc(Cl)c(Cl)c(S(N)(=O)=O)c1 [diclofenamide] | 102% | 98% | 106% | 98.7% | 105% | 88.2% | 81.4% | 87.1% | 91% | 88.9% | 102% | 104% | 112% | 104% | 98.9% | 95.8% | 102% | 96% | 99.1% | 95.3% | 97.6% | 103% | 100% | 97% | 101% | 0 | 0 | 0 | 0 | 0 | > 10 µM | > 10 µM | > 10 µM | > 10 µM | > 10 µM
